Key:
[1] = molecular target: T1, dopamine-β-hydroxylase (DBH) (Bos taurus, UniProt P15101); experiment: DBH inhibition kinetics: conversion of tyramine to octopamine, HPLC with fluorometric quantitation; assay type: biochemical
T1 sequence (P15101 1-610): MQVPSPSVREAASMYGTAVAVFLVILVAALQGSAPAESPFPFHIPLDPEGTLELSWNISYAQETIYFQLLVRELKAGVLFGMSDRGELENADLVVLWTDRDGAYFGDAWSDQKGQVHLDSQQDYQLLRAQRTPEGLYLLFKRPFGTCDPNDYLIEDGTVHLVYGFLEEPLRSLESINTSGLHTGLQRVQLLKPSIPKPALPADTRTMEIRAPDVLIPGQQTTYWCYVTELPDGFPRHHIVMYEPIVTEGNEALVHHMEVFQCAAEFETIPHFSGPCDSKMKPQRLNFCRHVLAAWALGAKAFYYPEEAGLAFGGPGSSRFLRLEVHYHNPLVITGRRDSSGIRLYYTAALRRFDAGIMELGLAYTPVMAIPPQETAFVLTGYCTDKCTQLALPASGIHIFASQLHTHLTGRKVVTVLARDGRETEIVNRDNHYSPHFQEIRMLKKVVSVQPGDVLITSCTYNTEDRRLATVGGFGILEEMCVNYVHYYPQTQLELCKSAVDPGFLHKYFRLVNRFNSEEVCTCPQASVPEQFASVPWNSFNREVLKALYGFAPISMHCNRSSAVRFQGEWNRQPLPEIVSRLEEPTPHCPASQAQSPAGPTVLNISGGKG
Description: The DBH inhibitory properties of the compounds of this invention can also readily be determined in vitro by standard and well known procedures for assaying the conversion of tyramine to octopamine in the presence of DBH, such as the procedure set forth by Feilchenfeld, N. B., Richter, H. W. and Waddell, W. H. in "Time-Resolved Assay of Dopamine Beta Hydroxylase Activity Utilizing High-Pressure Liquid Chromatography", Analyt. Biochem., 122, 124-128 (1982). Determination of the kinetics of DBH inhibition is exemplified by a procedure where the enzyme-assisted conversion of tyramine to octopamine is determined by incubating varying concentrations of test compound with constant concentrations of substrate, enzyme (DBH), molecular oxygen, an electron donor such as ascorbate and the necessary cofactors for the enzyme at optimal temperature and pH. After incubation, the product is separated out by high-performance liquid chromatography and quantitated fluorometrically, from which an inhibition constant (ki) can readily be calculated.

[2] = molecular target: T1, dopamine-β-hydroxylase (DBH); experiment: Time-dependent DBH inhibitory activity in vitro (oxygen uptake, tyramine as substrate); assay type: biochemical
Method: Since DBH is a major enzyme in the synthetic pathway of norepinephrine (NE), the presence of a DBH inhibitor would act to decrease the amount of NE produced, and thereby have an antihypertensive effect. The DBH inhibitory properties of the compounds of this invention can readily be determined by standard and well-known procedures. […] The test compound is added at the desired concentration, and the system is incubated. Aliquots are taken at different time intervals and DBH activity is measured using tyramine as the substrate. The reaction is followed by measuring oxygen uptake using a polarographic electrode and an oxygen monitor by the method of S. May, et al., J. Biol. Chem., 256, 2258 (1981).
t 1/2: time required for 50% log activity remaining

[3] = test system: spontaneously hypertensive rats; experiment: Antihypertensive activity in vivo: continuous recording of arterial blood pressure in unanesthetized spontaneously hypertensive rats; parameters: Max Change MBP: unit not given here; conditions: for % Lowering MBP / Max Change MBP: dosed as tosylate salt, MBP = mean blood pressure
Method: The ability of the compounds of this invention to lower blood pressure can be determined in vivo by using standard and well-known procedures such as those employed in the continuous recording of arterial blood pressure in conscious animals. For instance, test compounds are administered intraperitoneally (ip) to unanesthetized, spontaneously hypertensive rats and the arterial blood pressure is monitored continuously. In tests utilizing the above described procedure, the antihypertensive effects of the test compounds are readily apparent as indicated by the degree of lowering of mean blood pressure (MBP) noted in Table II.
*Dose was administered as mg/kg tosylate salt.

Compound | Activity in the time-dependent DBH inhibition assay (in words) [2] | % Lowering MBP ([3]; 100 mg/kg ip) [%] | Max Change MBP ([3]; 100 mg/kg ip) | % Lowering MBP ([3]; 200 mg/kg ip) [%] | Max Change MBP ([3]; 200 mg/kg ip) | also measured
NCCC1SCCS1 [1,3-Dithiolane-2-ethanamine] | – | – | – | – | – | DBH inhibitory activity (in words) ([1]; judged from ki): potent activity as a DBH inhibitor; Ki ([1]; tyramine to octopamine conversion, read-out: ki (inhibition constant), DBH): 11 µM
NC/C=C1/CCCS1 [(Z)-2-(Dihydro-2(3H)-thienylidene)ethanamine] | not active | 28.6 | -54 +/-21 | – | – | In vivo antihypertensive activity (in words) ([3]; ip, spontaneously hypertensive rats): active as an in vivo antihypertensive agent
NCC=C1SCCS1 [Compound 1 (Table I), 2-(1,3-dithiolan-2-ylidene)ethanamine] | most active compound of the compounds tested | – | – | 21.7 | -39 +/-13 | –
CC(N)C=C1SCCS1 (stereo not shown) [Compound 3 (Table I), 1-(1,3-dithiolan-2-ylidene)-2-propanamine] | – | – | – | 17.3 | -30 +/-13 | –
NC/C=C1\CCCS1 [Compound 4 (Table I), (E)-2-(dihydro-2(3H)-thienylidene)ethanamine] | – | 30.0 | -55 +/-22 | – | – | –

Source: US4970228A, “Novel aminoalkyl-substituted heterocyclic sulfur compounds” (Merrell Dow Pharmaceuticals, priority 1989, dated 1990)
